Tests used:
[1] = human
[2] = human; remark: listed apart in the source
[3] = human; remark: listed apart in the source
[4] = human; remark: listed apart in the source
[5] = human, serum
[6] = human; remark: listed apart in the source
[7] = human; remark: listed apart in the source
[8] = Highest frequency of acute liver toxicity observed during clinical trials, expressed as a percentage. [column '% AIGUE' in source]; conditions: human
[9] = human; remark: listed apart in the source
[10] = human; remark: listed apart in the source
[11] = human, serum; remark: listed apart in the source
[12] = Times to onset, minimal and maximal, observed in the indexed observations. [column 'DELAI' in source]; conditions: human
[13] = Comments (NB not yet translated). [column 'COMMENTAIRES' in source]; conditions: human
[14] = Highest frequency of moderate liver toxicity observed during clinical trials, expressed as a percentage. [column '% BIOL' in source]; conditions: human
[15] = human, serum, 4383 h
[16] = human; remark: listed apart in the source
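Throughout, for Hepatotoxicity (association with vascular disease): count of indexed literature references reporting vascular liver injury in humans, e.g. peliosis hepatitis, hepatic veno-occlusive disease or Budd-Chiari syndrome.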
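Throughout, for Hepatotoxicity (benign tumour): value is a count of indexed literature references citing a benign tumour confirmed by histopathology.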
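Throughout, for Hepatotoxicity (choleostasis): human cholestatic liver injury, shown by histopathology or by peak ALT or AST elevation over alkaline phosphatase ratio below 2, value counts indexed literature reports.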
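Throughout, for Hepatotoxicity (chronic liver disease): chronic liver injury confirmed by histopathology or persistently raised serum aminotransferase activity beyond 6 months, value given as the count of indexed literature references.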
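Throughout, for Hepatotoxicity (cirrhosis): value is a count of indexed literature references reporting cirrhosis confirmed by histopathology.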
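Throughout, for Hepatotoxicity (cytolytic): human cytolytic liver injury, shown by histopathology or by a ratio above 5 of peak ALT or AST elevation to alkaline phosphatase elevation, value counts indexed references.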
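Throughout, for Hepatotoxicity (granulomatous hepatitis): value is a count of indexed literature references reporting granulomatous liver disease confirmed by histopathology.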
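Throughout, for Hepatotoxicity (malignant tumour): malignant tumour confirmed by histopathology, value gives the count of indexed literature references reporting it.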
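Throughout, for Hepatotoxicity (severe hepatitis): human clinical data: severe hepatitis, meaning potentially life-threatening liver failure or clinically observed cases, the value counts how many indexed literature references report it.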
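Throughout, for Hepatotoxicity (steatosis): steatosis confirmed by histopathology, value is the count of indexed references.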

Compound: O=C1CCC(N2C(=O)c3ccccc3C2=O)C(=O)N1 (centres undefined) [THALIDOMIDE]
- Hepatotoxicity (malignant tumour) [1]: 0
- Hepatotoxicity (cytolytic) [2]: 2
- Hepatotoxicity (association with vascular disease) [3]: 0
- Hepatotoxicity (choleostasis) [4]: 0
- Hepatotoxicity (moderate) [5]: 3
- Hepatotoxicity (steatosis) [6]: 0
- Hepatotoxicity (granulomatous hepatitis) [7]: 0
- Hepatotoxicity (acute) [8]: 0%
- Hepatotoxicity (benign tumour) [9]: 0
- Hepatotoxicity (cirrhosis) [10]: 0
- Hepatotoxicity (acute) [11]: 2
- Hepatotoxicity (time to onset) [12]: 5 days - 7 months
- Hepatotoxicity (comment) [13]: REACTIVATION_HVC
- Hepatotoxicity (moderate) [14]: 5.6%
- Hepatotoxicity (chronic liver disease) [15]: 0
- Hepatotoxicity (severe hepatitis) [16]: 0

Compound: CC(=O)c1ccc2c(c1)N(CCCN(C)C)c1ccccc1S2 [ACEPROMAZINE]
- Hepatotoxicity (malignant tumour) [1]: 0
- Hepatotoxicity (cytolytic) [2]: 0
- Hepatotoxicity (association with vascular disease) [3]: 0
- Hepatotoxicity (choleostasis) [4]: 1
- Hepatotoxicity (moderate) [5]: 0
- Hepatotoxicity (steatosis) [6]: 0
- Hepatotoxicity (granulomatous hepatitis) [7]: 0
- Hepatotoxicity (acute) [8]: 0%
- Hepatotoxicity (benign tumour) [9]: 0
- Hepatotoxicity (cirrhosis) [10]: 0
- Hepatotoxicity (acute) [11]: 1
- Hepatotoxicity (time to onset) [12]: 3 months
- Hepatotoxicity (comment) [13]: CHOLESTASE_PROLONGEE
- Hepatotoxicity (moderate) [14]: 0%
- Hepatotoxicity (chronic liver disease) [15]: 0
- Hepatotoxicity (severe hepatitis) [16]: 0

Compound: CCC(=O)O[C@@H](O[P@](=O)(CCCCc1ccccc1)CC(=O)N1C[C@H](C2CCCCC2)C[C@H]1C(=O)O)C(C)C [FOSINOPRIL]
- Hepatotoxicity (malignant tumour) [1]: 0
- Hepatotoxicity (cytolytic) [2]: 0
- Hepatotoxicity (association with vascular disease) [3]: 0
- Hepatotoxicity (choleostasis) [4]: 2
- Hepatotoxicity (moderate) [5]: 3
- Hepatotoxicity (steatosis) [6]: 0
- Hepatotoxicity (granulomatous hepatitis) [7]: 0
- Hepatotoxicity (acute) [8]: 0%
- Hepatotoxicity (benign tumour) [9]: 0
- Hepatotoxicity (cirrhosis) [10]: 0
- Hepatotoxicity (acute) [11]: 2
- Hepatotoxicity (time to onset) [12]: 3 weeks - 3 months
- Hepatotoxicity (comment) [13]: PERICHOLANGITE CHOLESTASE_PROLONGEE
- Hepatotoxicity (moderate) [14]: 1.2%
- Hepatotoxicity (chronic liver disease) [15]: 0
- Hepatotoxicity (severe hepatitis) [16]: 0

Compound: CC(=O)/N=c1/sc(S(N)(=O)=O)nn1C [METHAZOLAMIDE]
- Hepatotoxicity (malignant tumour) [1]: 0
- Hepatotoxicity (cytolytic) [2]: 0
- Hepatotoxicity (association with vascular disease) [3]: 0
- Hepatotoxicity (choleostasis) [4]: 1
- Hepatotoxicity (moderate) [5]: 0
- Hepatotoxicity (steatosis) [6]: 0
- Hepatotoxicity (granulomatous hepatitis) [7]: 0
- Hepatotoxicity (acute) [8]: 0%
- Hepatotoxicity (benign tumour) [9]: 0
- Hepatotoxicity (cirrhosis) [10]: 0
- Hepatotoxicity (acute) [11]: 1
- Hepatotoxicity (time to onset) [12]: 2 weeks
- Hepatotoxicity (comment) [13]: CHOLESTASE_PROLONGEE
- Hepatotoxicity (moderate) [14]: 0%
- Hepatotoxicity (chronic liver disease) [15]: 0
- Hepatotoxicity (severe hepatitis) [16]: 0

Compound: C[C@]12CC[C@H]3[C@@H](CCC4=CC(=O)CC[C@@]43C)[C@@H]1CC[C@@H]2O [TESTOSTERONE]
- Hepatotoxicity (malignant tumour) [1]: 2
- Hepatotoxicity (cytolytic) [2]: 0
- Hepatotoxicity (association with vascular disease) [3]: 6
- Hepatotoxicity (choleostasis) [4]: 3
- Hepatotoxicity (moderate) [5]: 0
- Hepatotoxicity (steatosis) [6]: 0
- Hepatotoxicity (granulomatous hepatitis) [7]: 0
- Hepatotoxicity (acute) [8]: 0%
- Hepatotoxicity (benign tumour) [9]: 3
- Hepatotoxicity (cirrhosis) [10]: 0
- Hepatotoxicity (acute) [11]: 3
- Hepatotoxicity (time to onset) [12]: 3 months - 11 years
- Hepatotoxicity (comment) [13]: ANGIOSARCOME CHOLESTASE_PROLONGEE PELIOSE
- Hepatotoxicity (moderate) [14]: 0%
- Hepatotoxicity (chronic liver disease) [15]: 0
- Hepatotoxicity (severe hepatitis) [16]: 1

Compound: Cc1cc(Br)c(O)c2ncccc12 [TILBROQUINOL]
- Hepatotoxicity (malignant tumour) [1]: 0
- Hepatotoxicity (cytolytic) [2]: 0
- Hepatotoxicity (association with vascular disease) [3]: 0
- Hepatotoxicity (choleostasis) [4]: 0
- Hepatotoxicity (moderate) [5]: 0
- Hepatotoxicity (steatosis) [6]: 0
- Hepatotoxicity (granulomatous hepatitis) [7]: 1
- Hepatotoxicity (acute) [8]: 0%
- Hepatotoxicity (benign tumour) [9]: 0
- Hepatotoxicity (cirrhosis) [10]: 0
- Hepatotoxicity (acute) [11]: 1
- Hepatotoxicity (time to onset) [12]: 4 days
- Hepatotoxicity (comment) [13]: CHOLANGITE
- Hepatotoxicity (moderate) [14]: 0%
- Hepatotoxicity (chronic liver disease) [15]: 0
- Hepatotoxicity (severe hepatitis) [16]: 0

Compound: RITUXIMAB
- Hepatotoxicity (malignant tumour) [1]: 0
- Hepatotoxicity (cytolytic) [2]: 4
- Hepatotoxicity (association with vascular disease) [3]: 0
- Hepatotoxicity (choleostasis) [4]: 0
- Hepatotoxicity (moderate) [5]: 1
- Hepatotoxicity (steatosis) [6]: 0
- Hepatotoxicity (granulomatous hepatitis) [7]: 0
- Hepatotoxicity (acute) [8]: 0%
- Hepatotoxicity (benign tumour) [9]: 0
- Hepatotoxicity (cirrhosis) [10]: 0
- Hepatotoxicity (acute) [11]: 4
- Hepatotoxicity (time to onset) [12]: 2 months - 7 months
- Hepatotoxicity (comment) [13]: REACTIVATION_HVB
- Hepatotoxicity (moderate) [14]: 5.6%
- Hepatotoxicity (chronic liver disease) [15]: 0
- Hepatotoxicity (severe hepatitis) [16]: 3

Compound: Nc1ncnc2c1ncn2[C@@H]1O[C@H](CO)[C@@H](O)[C@@H]1O [VIDARABINE]
- Hepatotoxicity (malignant tumour) [1]: 0
- Hepatotoxicity (cytolytic) [2]: 0
- Hepatotoxicity (association with vascular disease) [3]: 0
- Hepatotoxicity (choleostasis) [4]: 0
- Hepatotoxicity (moderate) [5]: 5
- Hepatotoxicity (steatosis) [6]: 0
- Hepatotoxicity (granulomatous hepatitis) [7]: 0
- Hepatotoxicity (acute) [8]: 0%
- Hepatotoxicity (benign tumour) [9]: 0
- Hepatotoxicity (cirrhosis) [10]: 0
- Hepatotoxicity (acute) [11]: 0
- Hepatotoxicity (time to onset) [12]: 1 week
- Hepatotoxicity (comment) [13]: AGGRAVATION_HEPATITE_VIRALE
- Hepatotoxicity (moderate) [14]: 17%
- Hepatotoxicity (chronic liver disease) [15]: 0
- Hepatotoxicity (severe hepatitis) [16]: 1

Compound: CC(=O)OCC(CCn1cnc2cnc(N)nc21)COC(C)=O [FAMCICLOVIR]
- Hepatotoxicity (malignant tumour) [1]: 0
- Hepatotoxicity (cytolytic) [2]: 0
- Hepatotoxicity (association with vascular disease) [3]: 0
- Hepatotoxicity (choleostasis) [4]: 0
- Hepatotoxicity (moderate) [5]: 0
- Hepatotoxicity (steatosis) [6]: 0
- Hepatotoxicity (granulomatous hepatitis) [7]: 0
- Hepatotoxicity (acute) [8]: 0%
- Hepatotoxicity (benign tumour) [9]: 0
- Hepatotoxicity (cirrhosis) [10]: 0
- Hepatotoxicity (acute) [11]: 1
- Hepatotoxicity (time to onset) [12]: 12 weeks
- Hepatotoxicity (comment) [13]: REACTIVATION_HVB
- Hepatotoxicity (moderate) [14]: 0%
- Hepatotoxicity (chronic liver disease) [15]: 0
- Hepatotoxicity (severe hepatitis) [16]: 1

Compound: C[C@]12C=CC(=O)C=C1CC[C@@H]1[C@@H]2CC[C@@]2(C)[C@H]1CC[C@]2(C)O (stereo in doubt; form 1) [METHANDROSTENOLONE]
- Hepatotoxicity (malignant tumour) [1]: 2
- Hepatotoxicity (cytolytic) [2]: 0
- Hepatotoxicity (association with vascular disease) [3]: 0
- Hepatotoxicity (choleostasis) [4]: 0
- Hepatotoxicity (moderate) [5]: 0
- Hepatotoxicity (steatosis) [6]: 0
- Hepatotoxicity (granulomatous hepatitis) [7]: 0
- Hepatotoxicity (acute) [8]: 0%
- Hepatotoxicity (benign tumour) [9]: 1
- Hepatotoxicity (cirrhosis) [10]: 0
- Hepatotoxicity (acute) [11]: 3
- Hepatotoxicity (time to onset) [12]: 1 year - 2 years
- Hepatotoxicity (comment) [13]: ANGIOSARCOME
- Hepatotoxicity (moderate) [14]: 0%
- Hepatotoxicity (chronic liver disease) [15]: 0
- Hepatotoxicity (severe hepatitis) [16]: 0

Compound: NS(=O)(=O)c1cc2c(cc1Cl)N=CNS2(=O)=O [CHLOROTHIAZIDE]
- Hepatotoxicity (malignant tumour) [1]: 0
- Hepatotoxicity (cytolytic) [2]: 0
- Hepatotoxicity (association with vascular disease) [3]: 0
- Hepatotoxicity (choleostasis) [4]: 5
- Hepatotoxicity (moderate) [5]: 0
- Hepatotoxicity (steatosis) [6]: 0
- Hepatotoxicity (granulomatous hepatitis) [7]: 0
- Hepatotoxicity (acute) [8]: 0%
- Hepatotoxicity (benign tumour) [9]: 0
- Hepatotoxicity (cirrhosis) [10]: 1
- Hepatotoxicity (acute) [11]: 5
- Hepatotoxicity (time to onset) [12]: 2 weeks - 2 years
- Hepatotoxicity (comment) [13]: #CBP
- Hepatotoxicity (moderate) [14]: 0%
- Hepatotoxicity (chronic liver disease) [15]: 0
- Hepatotoxicity (severe hepatitis) [16]: 1

Compound: INFLIXIMAB
- Hepatotoxicity (malignant tumour) [1]: 0
- Hepatotoxicity (cytolytic) [2]: 4
- Hepatotoxicity (association with vascular disease) [3]: 0
- Hepatotoxicity (choleostasis) [4]: 2
- Hepatotoxicity (moderate) [5]: 3
- Hepatotoxicity (steatosis) [6]: 0
- Hepatotoxicity (granulomatous hepatitis) [7]: 0
- Hepatotoxicity (acute) [8]: 0%
- Hepatotoxicity (benign tumour) [9]: 0
- Hepatotoxicity (cirrhosis) [10]: 0
- Hepatotoxicity (acute) [11]: 8
- Hepatotoxicity (time to onset) [12]: 19 days - 19 months
- Hepatotoxicity (comment) [13]: CHOLANGITE CHOLECYSTITE REACTIVATION_HVB
- Hepatotoxicity (moderate) [14]: 31.3%
- Hepatotoxicity (chronic liver disease) [15]: 0
- Hepatotoxicity (severe hepatitis) [16]: 2

Compound: C[C@]12CC[C@H]3[C@@H](CCC4=CC(=O)CC[C@@H]43)[C@@H]1CC[C@@H]2O [NANDROLONE]
- Hepatotoxicity (malignant tumour) [1]: 0
- Hepatotoxicity (cytolytic) [2]: 3
- Hepatotoxicity (association with vascular disease) [3]: 0
- Hepatotoxicity (choleostasis) [4]: 1
- Hepatotoxicity (moderate) [5]: 0
- Hepatotoxicity (steatosis) [6]: 1
- Hepatotoxicity (granulomatous hepatitis) [7]: 0
- Hepatotoxicity (acute) [8]: 0%
- Hepatotoxicity (benign tumour) [9]: 2
- Hepatotoxicity (cirrhosis) [10]: 0
- Hepatotoxicity (acute) [11]: 7
- Hepatotoxicity (time to onset) [12]: 4 months - 12 years
- Hepatotoxicity (comment) [13]: CHOLESTASE_PROLONGEE
- Hepatotoxicity (moderate) [14]: 0%
- Hepatotoxicity (chronic liver disease) [15]: 0
- Hepatotoxicity (severe hepatitis) [16]: 0

Compound: ETANERCEPT
- Hepatotoxicity (malignant tumour) [1]: 0
- Hepatotoxicity (cytolytic) [2]: 0
- Hepatotoxicity (association with vascular disease) [3]: 0
- Hepatotoxicity (choleostasis) [4]: 0
- Hepatotoxicity (moderate) [5]: 2
- Hepatotoxicity (steatosis) [6]: 0
- Hepatotoxicity (granulomatous hepatitis) [7]: 0
- Hepatotoxicity (acute) [8]: 0%
- Hepatotoxicity (benign tumour) [9]: 0
- Hepatotoxicity (cirrhosis) [10]: 0
- Hepatotoxicity (acute) [11]: 0
- Hepatotoxicity (time to onset) [12]: 4 weeks - 14 weeks
- Hepatotoxicity (comment) [13]: CHOLECYSTITE
- Hepatotoxicity (moderate) [14]: 5%
- Hepatotoxicity (chronic liver disease) [15]: 0
- Hepatotoxicity (severe hepatitis) [16]: 0
